Values joined by “and” are separate entries in the source; they are usually repeats but may differ in a detail not shown here. Equal entries are not always repeated.
How the values were obtained:
[1] = system: recombinant laccase D from C. unicolor; assay: Bleaching of denim swatches with recombinant C. unicolor laccase D (Example 5); type: biochemical; parameters: key to ΔE (total color difference) Denim swatch Backside / ΔE (total color difference) Denim swatch Frontside: CIE L*a*b* differences, initial minus final; ΔE=(ΔL²+Δa²+Δb²)^1/2
Description: Denim legs (made out of sulfur bottom/indigo dyed denim fabric from Cone Mill, style number 1662P) were pretreated with IndiAge® 2XL at a dose of 1 gram per liter in a 50 lb lab scale tumbling washer. The liquor ratio was 6 to 1 (5 kg substrate in 30 liters of water) and the treatment was performed at 55° C. at pH 4.5 for 1 hour. A warm rinse followed the cellulase treatment, after which the fabric was dried in a tumble dryer. A punch press was used to cut ⅝ inch denim disks from IndiAge® 2XL pretreated denim legs. Each denim disk is pre read with a Chroma Meter CR-200 by Minolta in order to determine the CIE L*a*b* values of both the front and backside of the fabric disk.
One denim disk is placed in each well of two duplicate 12 well micro-titer plates. Each well received C. unicolor laccase (20 uL of 1/20 dilution, approx. 20 ppm), mediator (200, 100, 50 or 20 uL of a 20 mM stock solution in methanol) and 50 mM potassium phosphate buffer, pH 6 for a total volume of 2 mL/well. The mediators were methyl syringate (MS), 4-cyano-2,6-dimethoxyphenol (SN) and 3,4,5-trimethoxyphenol (TMP). The plates were sealed and incubated at 50° C. for 2 hours at 150 rpm in a standard incubator. Following this period, the swatches were removed from the plates and carefully placed on a filter paper in a Buchner funnel and washed with copious amounts of water, followed by drying of the residual water under high vacuum overnight. The swatches were then re-read with the chromometer in order to determine the CIE L*a*b* values of both the front and backside of the disk following bleaching. The total color difference (ΔE) is calculated from the difference between the initial and final CIE L*a*b* values according to the formula ΔE=(ΔL^2+Δa^2+Δb^2)^1/2 The total color differences (ΔE) as a function of mediator concentration are plotted in FIGS. 5 and 6.
A denim swatch bleaching assay was performed as described in Example 16, in this instance, using a recombinant form of the laccase D protein derived from C. unicolor.
Two duplicate 12-well plates were loaded with denim disks. The laccase D stock solution (5.5 ABTS units per mL) was dosed at either 25 or 50 uL per well. The mediators used were methyl syringate (MS), 4-cyano-2,6-dimethoxyphenol (SN) and 4-carboxamido-2,6-dimethoxyphenol (SA) and were used at either 0.5 or 1 mM concentration. The results are depicted in FIGS. 7 and 8.

recombinant laccase D = assay: Denim swatch bleaching, laccase and mediator concentration, Launder-O-meter (Example 10); type: biochemical, Cerrena unicolor; parameters: key: TCD = √(ΔL²+Δa²+Δb²) in CIE Lab, before vs after treatment; settings: 60° C., pH 6
Description: Laccase enzyme, derived from Cerrena unicolor (Example 7, 8570 U/ml, 4 mg protein/ml) was used in the experiments.
The enzyme incubations were done in an ATLAS LP 2 Launder-O-meter at different conditions in relation to pH, temperature, enzyme concentration and mediator concentration.
Reactions were carried out in 500 ml stainless steel reaction vessels containing 100 ml of liquid. To each vessel five (7×7 cm) stonewashed denim swatches (ACG denim style 80270) and 6 steel balls of 6 mm diameter were added. The reactions vessels were closed and entered into the launder-O-meter that was pre-heated to the desired temperature. The incubation was carried out for 30 minutes after which the swatches were washed with ‘running’ tap water, spin dried in an AEG IPX4 centrifuge and dried with an Elna Press Electronic iron at program cotton and evaluated.
The color of the five denim swatches is measured with a Minolta Chromameter CR 310 in the CIE Lab color space with a D 65 light source. Measurements were done before and after laccase treatment and the results of the five swatches were averaged. The total color difference (TCD) is calculated. The total color difference can be calculated with the formula: TCD=√(ΔL)^2+(Δa)^2+(Δb)^2.
The effect of laccase and mediator concentration was evaluated running the experiments in the tables below at pH 6 (50 mM monosodium phosphate buffer pH adjusted with sodium hydroxide 4N solution) and a temperature of 60° C.
The experiments were done with syringamide (SA)- and syringonitrile (SN) mediator.
100 ml buffer was added to a beaker with five swatches, 7×7 cm. The total weight 12 g, (denim:liquor ratio=1:8).
The amounts of syringamide or syringonitrile mediator as indicated in the tables below were added to each beaker as a dilution of a 275 mM SA—or—SN stock solution in 98% methanol. The laccase was added to each beaker as indicated in the tables below, as dilution of a 400 units/ml laccase stock solution. The beakers were closed and processed at 60° C. as described in the example 8. The swatches were evaluated as described in example 8.

[2] = mediator 0.5 mM, laccase D stock (5.5 U/mL) 25 uL
[3] = mediator 0.5 mM, laccase D stock (5.5 U/mL) 50 uL
[4] = mediator 1 mM, laccase D stock (5.5 U/mL) 25 uL
[5] = mediator 1 mM, laccase D stock (5.5 U/mL) 50 uL
[6] = laccase 10 μl/l, mediator 0.10 mM
[7] = laccase 10 μl/l, mediator 0.55 mM
[8] = laccase 10 μl/l, mediator 1.00 mM
[9] = laccase 33 μl/l, mediator 0.33 mM
[10] = laccase 33 μl/l, mediator 0.78 mM
[11] = laccase 55 μl/l, mediator 0.10 mM
[12] = laccase 55 μl/l, mediator 0.55 mM
[13] = laccase 55 μl/l, mediator 1.00 mM
[14] = laccase 78 μl/l, mediator 0.33 mM
[15] = laccase 78 μl/l, mediator 0.78 mM
[16] = laccase 100 μl/l, mediator 0.10 mM
[17] = laccase 100 μl/l, mediator 0.55 mM
[18] = laccase 100 μl/l, mediator 1.00 mM

Row | SMILES | ΔE (total color difference) Denim swatch Backside [1, 2] | ΔE (total color difference) Denim swatch Frontside [1, 2] | ΔL Denim swatch Backside [1, 2] | ΔL Denim swatch Frontside [1, 2] | Δb Denim swatch Backside [1, 2] | Δb Denim swatch Frontside [1, 2] | ΔE (total color difference) Denim swatch Backside [1, 3] | ΔE (total color difference) Denim swatch Frontside [1, 3] | ΔL Denim swatch Backside [1, 3] | ΔL Denim swatch Frontside [1, 3] | Δb Denim swatch Backside [1, 3] | Δb Denim swatch Frontside [1, 3] | ΔE (total color difference) Denim swatch Backside [1, 4] | ΔE (total color difference) Denim swatch Frontside [1, 4] | ΔL Denim swatch Backside [1, 4] | ΔL Denim swatch Frontside [1, 4] | Δb Denim swatch Backside [1, 4] | Δb Denim swatch Frontside [1, 4] | ΔE (total color difference) Denim swatch Backside [1, 5] | ΔE (total color difference) Denim swatch Frontside [1, 5] | other results
1 | COc1cc(C(N)=O)cc(OC)c1O [SA, 4-carboxamido-2,6-dimethoxyphenol] | 6.69 and 6.39 | 5.07 and 5.70 | 4.94 and 4.93 | 4.73 and 5.28 | 4.51 and 4.05 | 1.16 and 1.47 | 6.15 and 6.71 | 3.96 and 4.75 | 4.64 and 5.25 | 3.66 and 4.46 | 4.04 and 4.17 | 0.87 and 0.88 | 8.92 and 8.37 | 7.55 and 7.70 | 7.02 and 6.53 | 7.07 and 7.19 | 5.51 and 5.22 | 1.76 and 1.68 | 8.72 and 9.16 | 6.72 and 7.93 | ΔL Denim swatch Backside [1, 5]: 6.52 and 6.82; ΔL Denim swatch Frontside [1, 5]: 6.23 and 7.37; Δa Denim swatch Backside [1, 5]: 0.15 and 0.10; Δb Denim swatch Backside [1, 5]: 5.79 and 6.12; Δb Denim swatch Frontside [1, 5]: 1.73 and 2.11; TCD (total color difference) (recombinant laccase D; [6]): 2.5; TCD (total color difference) (recombinant laccase D; [7]): 3.6; TCD (total color difference) (recombinant laccase D; [8]): 3.2; TCD (total color difference) (recombinant laccase D; [9]): 4.6; TCD (total color difference) (recombinant laccase D; [10]): 5.5; TCD (total color difference) (recombinant laccase D; [11]): 3.1; TCD (total color difference) (recombinant laccase D; [12]): 5.3 and 5.8; TCD (total color difference) (recombinant laccase D; [13]): 6.2; TCD (total color difference) (recombinant laccase D; [14]): 4.4; TCD (total color difference) (recombinant laccase D; [15]): 5.9; TCD (total color difference) (recombinant laccase D; [16]): 3.2 and 2.9; TCD (total color difference) (recombinant laccase D; [17]): 5.3; TCD (total color difference) (recombinant laccase D; [18]): 5.6 and 6.0
2 | COc1cc(C#N)cc(OC)c1O [SN, 4-cyano-2,6-dimethoxyphenol] | 11.62 and 11.54 | 9.98 and 10.48 | 9.69 and 9.31 | 9.23 and 9.73 | 6.41 and 6.81 | 3.12 and 3.39 | 10.67 and 10.48 | 8.70 and 9.31 | 8.87 and 8.45 | 8.20 and 8.67 | 5.93 and 6.19 | 2.34 and 2.90 | 13.85 and 13.07 | 13.24 and 13.88 | 11.36 and 10.64 | 12.31 and 12.85 | 7.93 and 7.59 | 4.36 and 4.85 | 14.05 and 14.15 | 14.18 and 14.15 | Δa Denim swatch Backside [1, 3]: 0.26 and 0.33; ΔL Denim swatch Backside [1, 5]: 11.25 and 10.98; ΔL Denim swatch Frontside [1, 5]: 12.98 and 12.85; Δa Denim swatch Backside [1, 5]: 0.29 and 0.48; Δb Denim swatch Backside [1, 5]: 8.41 and 8.91; Δb Denim swatch Frontside [1, 5]: 5.33 and 5.50; effectiveness as mediator for swatch bleaching ([1]; recombinant laccase D, mediator 0.5 or 1 mM): most effective mediator; TCD (total color difference) (recombinant laccase D; [6]): 2.7; TCD (total color difference) (recombinant laccase D; [7]): 3.4; TCD (total color difference) (recombinant laccase D; [8]): 3.8; TCD (total color difference) (recombinant laccase D; [9]): 4.4; TCD (total color difference) (recombinant laccase D; [10]): 5.5; TCD (total color difference) (recombinant laccase D; [11]): 3.5; TCD (total color difference) (recombinant laccase D; [12]): 6.0 and 6.3; TCD (total color difference) (recombinant laccase D; [13]): 7.0; TCD (total color difference) (recombinant laccase D; [14]): 5.6; TCD (total color difference) (recombinant laccase D; [15]): 7.1; TCD (total color difference) (recombinant laccase D; [16]): 4.0 and 4.1; TCD (total color difference) (recombinant laccase D; [17]): 7.1; TCD (total color difference) (recombinant laccase D; [18]): 7.6 and 8.1

— US8282688B2, “Laccase mediators and methods of use” (Danisco US Inc., priority 2006, dated 2012)
